Measured values from the NIST ThermoML archive (doi:10.1016/j.jct.2004.07.027).
± gives the expanded uncertainty stated by the source.

Experiment: mn = molality of the nth substance listed, in mol/kg
Details: 350 kPa, Liquid, Extra sensitive DSC

C1COCCOCCOCCOCCOCCO1 [1,4,7,10,13,16-hexaoxacyclooctadecane] + O
apparent molar heat capacity [J/K/mol]
Details | 368.15 K | 373.15 K | 378.15 K | 383.15 K | 388.15 K | 393.15 K
m1 = 0.01001 | 958.6 ± 8.2 | 959.1 ± 8.1 | 960.1 ± 8 | 960.3 ± 7.9 | 958.8 ± 8.2 | 958.8 ± 9.7
m1 = 0.02001 | 953.5 ± 4.1 | 955.6 ± 4.1 | 955.9 ± 4.1 | 956.3 ± 4.2 | 955.7 ± 4.2 | 954.7 ± 4.2
m1 = 0.03002 | 954.4 ± 2.7 | 955.9 ± 2.7 | 957.7 ± 2.8 | 959.2 ± 2.8 | 959.9 ± 2.8 | 967.1 ± 2.8
m1 = 0.0401 | 959.7 ± 2.1 | 960.6 ± 2 | 960.8 ± 2 | 959.6 ± 2 | 956.7 ± 2.1 | 951.9 ± 2.4
m1 = 0.04995 | 960.2 ± 1.6 | 961.7 ± 1.6 | 962.6 ± 1.6 | 962.7 ± 1.7 | 962.3 ± 1.8 | 961.7 ± 2.2
m1 = 0.06015 | 959.9 ± 1.4 | 961.5 ± 1.4 | 962.6 ± 1.4 | 962.5 ± 1.4 | 961.8 ± 1.5 | 961.2 ± 1.8
m1 = 0.08002 | 959.2 ± 1.1 | 960.8 ± 1 | 961.5 ± 1 | 961.5 ± 1 | 960.8 ± 1.1 | 960.2 ± 1.3
m1 = 0.1224 | 958.26 ± 0.7 | 959.82 ± 0.7 | 960.5 ± 0.69 | 960.35 ± 0.68 | 959.65 ± 0.7 | 958.56 ± 0.75
m1 = 0.1472 | 958.12 ± 0.65 | 959.52 ± 0.66 | 960.13 ± 0.68 | 959.95 ± 0.66 | 959.06 ± 0.7 | 957.61 ± 0.83
m1 = 0.1935 | 957 ± 0.5 | 958.21 ± 0.49 | 958.64 ± 0.5 | 958.25 ± 0.5 | 957.22 ± 0.52 | 955.72 ± 0.55
m1 = 0.2925 | 954.88 ± 0.34 | 955.86 ± 0.33 | 956.01 ± 0.34 | 955.31 ± 0.34 | 954.17 ± 0.35 | 952.32 ± 0.38
